This data set is described as follows: xn = mol fraction of the nth substance listed. Conditions: 298.2 K, 100 kPa, Liquid, Pycnometric method.

± gives the expanded uncertainty stated by the source.

The record followed here is the NIST ThermoML archive (doi:10.1021/acs.jced.5b00201).

The mass density is the mass of a sample divided by its volume.

Consider `Cc1ccc(-c2ncc(Cl)cc2-c2ccc(S(C)(=O)=O)cc2)cn1` [etoricoxib] + C1COCCO1, for which the mass density (x1 = 0.07301) is 1026.8 ± 0.9 kg/m3.
With `Cc1ccc(-c2ncc(Cl)cc2-c2ccc(S(C)(=O)=O)cc2)cn1` [etoricoxib] + CC(=O)N(C)C, the mass density (x1 = 0.08112) turned out to be 942.7 ± 0.8 kg/m3.
`Cc1ccc(-c2ncc(Cl)cc2-c2ccc(S(C)(=O)=O)cc2)cn1` [etoricoxib] + CCO: under “x1 = 0.05374”, the mass density was 819.9 ± 0.7 kg/m3.
`Cc1ccc(-c2ncc(Cl)cc2-c2ccc(S(C)(=O)=O)cc2)cn1` [etoricoxib] + CN(C)C=O: the mass density (x1 = 0.06899) is on record as 952.7 ± 0.8 kg/m3.
`Cc1ccc(-c2ncc(Cl)cc2-c2ccc(S(C)(=O)=O)cc2)cn1` [etoricoxib] + C[S+](C)[O-]: the mass density (x1 = 0.06044) was 1105.6 ± 1 kg/m3.
With `Cc1ccc(-c2ncc(Cl)cc2-c2ccc(S(C)(=O)=O)cc2)cn1` [etoricoxib] + O, the mass density (x1 = 1.56e-05) turned out to be 994.8 ± 0.8 kg/m3.
On to `Cc1ccc(-c2ncc(Cl)cc2-c2ccc(S(C)(=O)=O)cc2)cn1` [etoricoxib] + OCCCCO, for which the mass density (x1 = 0.07226) came out at 1039.8 ± 0.9 kg/m3.
